Assay results: patent US8247211B2, “Glycopeptide antibiotics” (American Cyanamid Company, priority 2001, dated 2012)
Numbered stars: 1 amine (or outer) side, 2 acyl side, 3 side chain; on linkers, the order of the positions; unused ones are H or OH. Square brackets hold non-standard residues; d marks the D form. Peptide text beside a SMILES is read from it. * marks the point of attachment. ξ: configuration not given here. X1 = N=C1NCC(C(O)C(N[*:1])C(=O)[*:2])N1C1OC(CO)C(O)C(O)C1O; ξEnduracididine(βξ-OH,4'ξ) = N=C1NCC(C(O)C(N)C(=O)O)N1; X2 = OCC1OC(OC2C(CO)OC(*)C(O)C2O)C(O)C(O)C1O; Cha = N[CH](CC1CCCCC1)C(=O)O

Legend:
[1] = format: in vivo; conditions: mice, 20 mg/kg intravenously daily for 9 days, serum on day 10
Protocol: 20-day-old CD-1 mice were divided into a vehicle control group (5 mice) and a treatment group (5 mice). Samples of glycopeptide antibiotics were administered at 20 mg/kg intravenously daily for 9 days. Animals were necropsied on day 10 Sera were analyzed for BUN (blood urea nitrogen), creatinine, AST (aspartic aminotransferase), and ALT (alanine aminotransferase) by routine, standard, automated methods using an Hitachi 747 chemistry analyzer.

Enterococcus sp. = experiment: In vitro antibacterial evaluation: minimum inhibitory concentration (MIC), broth dilution method; format: cell-based
Method in brief: (§1)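 Inoculum: 5×10^5 CFU/mL. Range: 64-0.06 μg/mL. Medium: Muller-Hinton II […]; NCCLS M7-A2 broth dilution. Endpoint: lowest concentration inhibiting growth. Strains include methicillin-, penicillin- and/or vancomycin-resistant clinical isolates.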

Escherichia coli [2] = experiment: as above; format: cell-based
Method in brief: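 NCCLS M7-A2 broth dilution; Muller-Hinton II […]; 5×10^5 CFU/mL; 64-0.06 μg/mL. MIC = lowest concentration with no growth.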

Staphylococcus sp. = experiment: as above; format: cell-based; conditions: 18 hours at 35° C.
Method in brief: as §1

Streptococcus sp. = experiment: as above; format: cell-based; conditions: 18 hours at 35° C.
Method in brief: as §1

[3] = test system: Staphylococcus aureus-SMITH (GC 4543); experiment: Acute lethal infection in mice (ED50); format: in vivo; conditions: female CD-1 mice, intraperitoneal challenge, intravenous dose 30 min. after infection, 7 day survival ratios
Method in brief: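 Female CD-1 mice (20 ± 1-2 g) were infected intraperitoneally with enough bacteria, suspended in Trypticase Soy Broth or hog gastric mucin, to kill untreated controls within 24-48 hr. Compound in saline or 5% dextrose was given intravenously 30 min after infection. ED50 came from pooled 7-day survival over 3 tests.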

[4] = Anatomic pathology (heart and kidney histopathology) in mice; format: in vivo, CD-1 mice; conditions: 20 mg/kg intravenously daily for 9 days, microscopic histopathology on day 10
Method in brief: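 Juvenile CD-1 mice (20 days old; 5 vehicle, 5 treated) received glycopeptide antibiotic 20 mg/kg i.v. daily for 9 days. Necropsied tissues formalin-fixed, paraffin-embedded, H&E stained and examined microscopically; findings graded slight to severe versus controls.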

Escherichia coli [5] = experiment: In vitro antibacterial evaluation: minimum inhibitory concentration (MIC), broth dilution method; format: cell-based; remark: listed apart in the source

CC(C)CC(=O)OCC1OC(OC2C(CO)OC(Oc3ccc(CC4NC(=O)C(C(C)c5ccccc5)NC(=O)CNC(=O)C(CO)NC(=O)C(CC5CNC(=N)N5C5OC(CO)C(O)C(O)C5O)NC(=O)C(CC5CNC(=N)N5)NC4=O)cc3)C(O)C2O)C(O)C(O)C1O (stereo not shown) [Example 277c]
+253%: Clinical Chemistry (Day 10) % of Control, AST [1]

N=C1NCC(C(O)C2NC(=O)C(Cc3ccc(OC4OC(CO)C(OC5OC(CO)C(O)C(O)C5O)C(O)C4O)cc3)NC(=O)C(CC3CCCCC3)NC(=O)CNC(=O)C(CO)NC(=O)C(C(O)C3CNC(=N)N3C3OC(CO)C(O)C(O)C3O)NC2=O)N1 (stereo not drawn) [Example 263, Cyclo[3-cyclohexylalanyl-O-(4-O-hexopyranosylhexopyranosyl)tyrosyl-3-(2-iminoimidazolidin-4-yl)seryl-3-(3-hexopyranosyl-2-iminoimidazolidin-4-yl)serylserylglycyl]] (cyclo(G[Cha]Y(X2)[ξEnduracididine(βξ-OH,4'ξ)][X1]S); configuration not given here)
++: Anatomical Pathology (Day 10), Kidney [4]
64 µg/mL: MIC Coagulase Negative Staphylococcus (GC 4547) (Staphylococcus sp.) | MIC Coagulase Negative Staphylococcus (GC 4547) (Staphylococcus sp.; broth dilution) | MIC Coagulase Negative Staphylococcus (GC 4551) (Staphylococcus sp.) | MIC Coagulase Negative Staphylococcus (GC 4551) (Staphylococcus sp.; broth dilution) | MIC Staphylococcus aureus (ATCC 29213) (Staphylococcus sp.) | MIC Staphylococcus aureus (ATCC 29213) (Staphylococcus sp.; broth dilution) | MIC Staphylococcus aureus (GC 1131) (Staphylococcus sp.) | MIC Staphylococcus aureus (GC 1131) (Staphylococcus sp.; broth dilution) | MIC Staphylococcus aureus (GC 4541) (Staphylococcus sp.) | MIC Staphylococcus aureus (GC 4541) (Staphylococcus sp.; broth dilution) | MIC Staphylococcus aureus (GC 4542) (Staphylococcus sp.) | MIC Staphylococcus aureus (GC 4542) (Staphylococcus sp.; broth dilution) | MIC Staphylococcus aureus (GC 4545) (Staphylococcus sp.) | MIC Staphylococcus aureus (GC 4545) (Staphylococcus sp.; broth dilution)
+: Anatomical Pathology (Day 10), Heart [4]
>64 µg/mL: MIC Enterococcus avium (GC 4558) (Enterococcus sp.; Enterococcus avium (GC 4558)) | MIC Enterococcus faecalis (ATCC 29212) (Enterococcus sp.; Enterococcus faecalis (ATCC 29212)) | MIC Enterococcus faecalis (GC 2242) (Enterococcus sp.; Enterococcus faecalis (GC 2242), 18 hours at 35° C.) | MIC Enterococcus faecalis (GC 4552) (Enterococcus sp.; Enterococcus faecalis (GC 4552), 18 hours at 35° C.) | MIC Enterococcus faecalis (GC 4553) (Enterococcus sp.; Enterococcus faecalis (GC 4553)) | MIC Enterococcus faecalis (GC 4554) (Enterococcus sp.; Enterococcus faecalis (GC 4554)) | MIC Enterococcus faecium (GC 2243) (Enterococcus sp.; Enterococcus faecium (GC 2243)) | MIC Enterococcus faecium (GC 4556) (Enterococcus sp.; Enterococcus faecium (GC 4556)) | MIC Escherichia coli (GC 4559) (Escherichia coli [2]; Escherichia coli (GC 4559)) | MIC Staphylococcus aureus (GC 4544) (Staphylococcus sp.) | MIC Staphylococcus aureus (GC 4544) (Staphylococcus sp.; broth dilution) | MIC Escherichia coli (ATCC 25922) (Escherichia coli [5])
32 µg/mL: MIC Enterococcus faecium (GC 4557) (Enterococcus sp.; Enterococcus faecium (GC 4557)) | MIC Coagulase Negative Staphylococcus (GC 4548) (Staphylococcus sp.) | MIC Coagulase Negative Staphylococcus (GC 4548) (Staphylococcus sp.; broth dilution) | MIC Staphylococcus aureus-SMITH (GC 4543) (Staphylococcus sp.) | MIC Staphylococcus aureus-SMITH (GC 4543) (Staphylococcus sp.; broth dilution) | MIC Staphylococcus haemolyticus (GC 4546) (Staphylococcus sp.) | MIC Staphylococcus haemolyticus (GC 4546) (Staphylococcus sp.; broth dilution) | MIC Streptococcus agalactiae (GC 4564) (Streptococcus sp.; Streptococcus agalactiae (GC 4564)) | MIC Streptococcus pyogenes (ID-3187) (Streptococcus sp.; Streptococcus pyogenes (ID-3187))
16 µg/mL: MIC Escherichia coli (GC 4560) (Escherichia coli [2]; Escherichia coli (GC 4560)) | MIC Coagulase Negative Staphylococcus (GC 4549) (Staphylococcus sp.) | MIC Coagulase Negative Staphylococcus (GC 4549) (Staphylococcus sp.; broth dilution)
>8: median effective dose (ED50), Staphylococcus aureus-SMITH (GC 4543) [3]

CC(c1ccccc1)C1NC(=O)CNC(=O)C(CO)NC(=O)C(CC2CNC(=N)N2C2OC(CO)C(O)C(O)C2O)NC(=O)C(CC2CNC(=N)N2)NC(=O)C(Cc2ccc(OC3OC(CO)C(OC4OC(CO)C(O)C(O)C4O)C(O)C3O)cc2)NC1=O (stereo not drawn) [Example 277a, Cyclo[3-(2-iminoimidazolidin-4-yl)alanyl-3-(3-hexopyranosyl-2-iminoimidazolidin-4-yl)-alanylserylglycyl-β-methylphenylalanyl-O-(4-O-hexopyranosylhexopyranosyl]tyrosyl]]
+110%: Clinical Chemistry (Day 10) % of Control, BUN [1]
0: Anatomical Pathology (Day 10), Heart [4]
>8: median effective dose (ED50), Staphylococcus aureus-SMITH (GC 4543) [3]
++: Anatomical Pathology (Day 10), Kidney [4]
